Peptide text beside a SMILES is read from it. * marks the point of attachment. Biotin = O=C1N[C@H]2[C@H](CS[C@H]2CCCCC(=O)*)N1; Ahx = NCCCCCC(=O)O
What was measured:
Type in all cases: cell-based
[1] = system: HSV-1 KOS; assay: Yield reduction assay (virus production in infected Vero cells)
Procedure: Three days post-infection, Vero cell cultures in microtiter plates were frozen (−80° C.) and thawed (37° C.) three times. Cells were suspended by repeated pipetting and microtiter plates were spun for 10 min at 700×g in a Beckman model TJ-6 tabletop centrifuge. The virus-containing supernates were serially diluted in regular medium and titered on Vero cells. Plaques were counted after staining the monolayers with crystal violet as taught by Grau et al., Invest. Ophthalmol. Vis. Sci. 30:2474 (1989).
Vero cell cultures as prepared in Example 1 were infected with HSV-1 and assayed for virus production as described in Example 1. The antiviral activity of an antiviral peptide according to the present invention EB (SEQ ID NO:1) was compared to the antiviral activity of the current HSV antiviral nucleoside standard, acyclovir. The two peptides were added to the Vero cells one hour prior to infection with HSV.

[2] = system: HSV-1 KOS; assay: Plaque reduction assay, HSV-1 KOS infection of Vero cell cultures; conditions: for antiviral activity compared with EB: plaque reduction (FIG. 1D, FIG. 2)
Procedure: The procedures for growing Vero cells and preparing high titer stocks of HSV-1 KOS as described in (Grau et al., Invest. Ophthal. and Vis. Sci. 30: 2474 (1989)) were utilized. Vero cells were maintained in carbonate-buffered DMEM supplemented with 5% calf serum and 5% fetal bovine serum (regular medium). For some studies, cells were switched to serum-free DMEM buffered with 25 mM Hepes (pH 7.4) and allowed to adapt to that medium for 30 min prior to experimental treatments. Vero cells were seeded into wells (0.28 cm^2) of microtiter plates either at 3.5×10^4 cells/well for use 1 day later (8×10^4 cells/well) or at 1×10^4 cells/well for use 3 days later (2×10^5 cells/well).
Confluent Vero cell cultures in microtiter plates were infected for 1 hour at 37° C. in 40 μl of medium. Except where indicated, peptide treatments in 40 μl of medium lasted from 1 hour before through 1 hour after infection. At the end of the adsorption period, the cultures were re-fed with 100 μl of regular medium. Plaque formation was scored 2 days later and the number of plaques scored per well was normalized to the number counted in the absence of peptide. Using an ocular micrometer, plaque size ([…]) was determined by measuring the largest plaque diameter (L) and the diameter at a 90° angle to that (S). The size of each of the first 40 scored plaques was measured except when a plaque included less than 10 rounded cells or touched the side of the well.

[3] = system: hrR3; assay: LacZ+ virus (hrR3) entry assay; conditions: Table 3; read-out: Entry Blocking Activity (IC50)
Procedure: Confluent Vero cell cultures in 96-well microtiter plates were switched to Hepes-buffered serum-free DMEM, cooled on ice to 4° C. for 30 min, and infected with hrR3 for 1 hour at 4° C. in 40 μl of medium. Unattached virus was removed by rinsing with ice-cold medium. Treatments with antiviral peptide SEQ ID NO:1, referred to as EB, or a control peptide which comprised the RRKK tetra-peptide (SEQ ID NO:16) attached to a scrambled version of the membrane transiting peptide RRKKLAALPLVLAAPLAVLA (SEQ ID NO:17) (referred to as EBX), or mock-treatments with peptide-free medium were carried out in serum-free DMEM as indicated. Virus entry was initiated by transferring cultures to 37° C. To inactivate any remaining extracellular virus, cultures were rinsed with PBS and exposed to low pH citrate buffer (40 mM citric acid, 10 mM KCl, 135 mM NaCl, pH 3.0, according to Highlander et al., J. Virol. 61:3356 (1987), for 1 min at 23° C. The citrate was rinsed off with PBS and cultures were maintained in serum-supplemented DMEM until they were fixed with 0.5% gluteraldehyde in 5×PBS for 30 min at 23° C., stained for β-galactosidase activity for 1 hour or overnight at 23° C. with X-gal (Fisher Biotech; BP 1615-1) in 1×PBS containing […], 1.3 mM K4Fe(CN)6, and 1.3 mM K3Fe(CN)6, and scored for the presence of blue lacZ^+ cells.
In these studies, the hrR3 virus was pre-adsorbed to cells for 1 hour at 4° C. before ice cold 25 μM EB or EBX were added in serum-free DMEM. After an additional 1 hour at 4° C., cultures were shifted to 37° C. to initiate virus entry. At 15 min intervals following the temperature shift, any virus remaining outside the cells was inactivated by washing the cultures with low pH citrate buffer. Cultures were then rinsed and returned to peptide-free serum-supplemented DMEM until they were fixed and stained for f-galactosidase 8 hours after the temperature shift.
This conclusion is strengthened by the finding that the EB-sensitive phase of infection with pre-adsorbed virus clearly precedes expression of lacZ genes in hrR3 infected cells (FIG. 7A). Again, hrR3 was pre-adsorbed to cells for 1 hour at 4° C., unattached virus was rinsed off, and cells were kept for an additional hour at 4° C. Cultures were then transferred to 23° C. for 30 min before they were switched to 37° C. The more gradual change to 37° C. allowed cell layers to remain intact through subsequent frequent medium changes. Immediately following viral adsorption, cells were treated with 50 μM EB for 1 hour periods at consecutive 1 hour intervals. Between 1 and 4 hours post-infection, virus entry was inhibited by 70-80%. […] Parallel cultures were immediately fixed after mock-treatments and stained with X-gal. In these cultures, blue (lacZ^+) cells first appeared 7 hours post-infection and their number increased nearly linearly for the next 3 hours (FIG. 7A, (∘)). By 7 hours post-infection, EB ceased to be inhibitory.

[4] = system: hrR3; assay: Virucidal assay
Procedure: […] The treated virus was diluted 200-fold with serum-supplemented DMEM and assayed for infectivity approximately 1 hour later in microtiter wells seeded with Vero cells (3.5×10^4 cells/well) 1 d earlier. Forty or 100 microliter volumes of diluted virus were adsorbed for 1 or 2 h at 37° C. and lacZ^+ cells were scored 8 hours later. In some experiments, aliquots of diluted virus were first dialyzed (Spectra/Por; MWCO 12-14,000) overnight at 4° C. against a 60-fold excess volume of Hepes-buffered serum-supplemented DMEM or forced by syringe through 0.22 μm membranes (Millex-GV; Millipore) before the remaining infectious virus was assayed.

[5] = system: virus; assay: Anti-free virus activity (Table 3)
[6] = 37° C., read-out: Virucidal Activity 37° C. (IC50)
[7] = 4° C., read-out: Virucidal Activity 4° C. (IC50)

Compound | IC50 [3] [µM] | Virucidal Activity 4° C. (IC50) ([4]; 4° C.) | Virucidal Activity 37° C. (IC50) ([4]; 37° C.) | IC50 [4, 6] [µM] | IC50 [5] [µM] | further results
Nc1nc2c(ncn2COCCO)c(=O)[nH]1 [acyclovir, reference compound] | – | – | – | – | – | antiviral activity, EB compared with acyclovir ([1]; added one hour prior to infection, EB statement for concentrations exceeding 10 μM (FIG. 3)): highest antiviral activity at low dosages
NH2-RRKKAAVALLAV LLALLAPP-COOH (H-RRKKAAVALLAVLLALLAPP-OH) [EBPP] | – | – | – | – | – | antiviral activity compared with EB [2]: twice as active; antiviral activity compared with EB ([1]; yield reduction (FIG. 1E; data not shown)): twice as active
N=C(N)NCCC[C@H](NC(=O)[C@@H](N)CCCNC(=N)N)C(=O)N[C@@H](CCCCN)C(=O)N[C@@H](CCCCN)C(=O)O [R-R-K-K tetramer, R-R-K-K, reference compound] (H-RRKK-OH; N-terminus and C-terminus assumed) | – | – | – | – | – | antiviral activity ([2]; presence of serum, concentrations as high as 200 μM (FIG. 1A)): no antiviral activity
b-YGRKKRRQRRR-9x [bTAT-9x] | 67 | None | None | – | – | –
CC[C@H](C)[C@H](NC(=O)[C@H](CCCCN)NC(=O)[C@@H](NC(=O)[C@H](CCC(N)=O)NC(=O)[C@H](CCCNC(=N)N)NC(=O)CCCCCNC(=O)CCCC[C@@H]1SC[C@@H]2NC(=O)N[C@@H]21)[C@@H](C)CC)C(=O)N[C@@H](Cc1c[nH]c2ccccc12)C(=O)N[C@@H](Cc1ccccc1)C(=O)N1CCC[C@H]1C(=O)N[C@@H](CC(N)=O)C(=O)N[C@@H](CCCNC(=N)N)C(=O)N[C@@H](CCCNC(=N)N)C(=O)N[C@@H](CCSC)C(=O)N[C@@H](CCCCN)C(=O)N[C@@H](Cc1c[nH]c2ccccc12)C(=O)N[C@@H](CCCCN)C(=O)N[C@@H](CCCCN)C(=O)N1CCC[C@H]1C(=O)NCC(=O)N[C@@H](Cc1ccc(O)cc1)C(=O)N[C@@H](C)C(=O)NCC(=O)N[C@@H](C)C(=O)N[C@H](C(=O)N[C@H](C(=O)N[C@@H](CC(N)=O)C(=O)N[C@@H](CC(=O)O)C(=O)N[C@@H](CC(C)C)C(=O)O)C(C)C)C(C)C [bHOM-9, b-RQIKIWFPNRRMKWKK-9] ({Biotin-Ahx}-RQIKIWFPNRRMKWKKPGYAGAVVNDL-OH) | 9 to 12 | None | – | 115 | 6 | –
CC[C@H](C)[C@H](NC(=O)[C@H](CCCCN)NC(=O)[C@@H](NC(=O)[C@H](CCC(N)=O)NC(=O)[C@H](CCCNC(=N)N)NC(=O)CCCCCNC(=O)CCCC[C@@H]1SC[C@@H]2NC(=O)N[C@@H]21)[C@@H](C)CC)C(=O)N[C@@H](Cc1ccccc1)C(=O)N[C@@H](Cc1ccccc1)C(=O)N1CCC[C@H]1C(=O)N[C@@H](CC(N)=O)C(=O)N[C@@H](CCCNC(=N)N)C(=O)N[C@@H](CCCNC(=N)N)C(=O)N[C@@H](CCSC)C(=O)N[C@@H](CCCCN)C(=O)N[C@@H](Cc1ccccc1)C(=O)N[C@@H](CCCCN)C(=O)N[C@@H](CCCCN)C(N)=O [bHOMFF, b-RQIKI F FPNRRMK F KK-amide] ({Biotin-Ahx}-RQIKIFFPNRRMKFKK-NH2) | 40 | None | None | – | 34 | –
CC(C)C[C@H](NC(=O)[C@H](C)NC(=O)[C@H](CCCCN)NC(=O)[C@H](CC(C)C)NC(=O)[C@H](C)NC(=O)[C@H](CC(C)C)NC(=O)[C@H](CCCCN)NC(=O)[C@H](CC(C)C)NC(=O)[C@H](C)NC(=O)[C@H](CC(C)C)NC(=O)[C@H](CCCCN)NC(=O)CCCCCNC(=O)CCCC[C@@H]1SC[C@@H]2NC(=O)N[C@@H]21)C(=O)N[C@@H](CCCCN)C(=O)N[C@@H](C)C(=O)N[C@@H](C)C(=O)N[C@@H](CC(C)C)C(=O)N[C@@H](CCCCN)C(=O)N[C@@H](CC(C)C)C(=O)N[C@@H](C)C(N)=O [bKLA, b-KLALKLALKALKAALKLA-amide] | 11 | – | – | – | 4.5 | IC50 [4, 7]: 45 µM
CC(C)C[C@H](NC(=O)[C@H](CC(=O)O)NC(=O)[C@H](CC(N)=O)NC(=O)[C@@H](NC(=O)[C@@H](NC(=O)[C@H](C)NC(=O)CNC(=O)[C@H](C)NC(=O)[C@H](Cc1ccc(O)cc1)NC(=O)CNC(=O)[C@@H]1CCCN1C(=O)[C@H](CCCNC(=N)N)NC(=O)[C@H](CCCNC(=N)N)NC(=O)[C@H](CCCNC(=N)N)NC(=O)[C@H](CCC(N)=O)NC(=O)[C@H](CCCNC(=N)N)NC(=O)[C@H](CCCNC(=N)N)NC(=O)[C@H](CCCCN)NC(=O)[C@H](CCCCN)NC(=O)[C@H](CCCNC(=N)N)NC(=O)CNC(=O)[C@H](Cc1ccc(O)cc1)NC(=O)CCCCCNC(=O)CCCC[C@@H]1SC[C@@H]2NC(=O)N[C@@H]21)C(C)C)C(C)C)C(=O)O [bTAT-9, b-YGRKKRRQRRR-9] ({Biotin-Ahx}-YGRKKRRQRRRPGYAGAVVNDL-OH) | 26 | None | None | – | 8 | –
CC(C)C[C@H](NC(=O)[C@H](C)NC(=O)[C@H](CC(C)C)NC(=O)[C@H](CC(C)C)NC(=O)[C@@H](NC(=O)[C@H](C)NC(=O)[C@@H]1CCCN1C(=O)[C@H](CC(C)C)NC(=O)[C@H](CC(C)C)NC(=O)[C@H](C)NC(=O)[C@@H](NC(=O)[C@H](C)NC(=O)[C@H](C)NC(=O)[C@H](CCCCN)NC(=O)[C@H](CCCCN)NC(=O)[C@H](CCCNC(=N)N)NC(=O)[C@H](CCCNC(=N)N)NC(=O)CCCCCNC(=O)CCCC[C@@H]1SC[C@@H]2NC(=O)N[C@@H]21)C(C)C)C(C)C)C(=O)N[C@@H](CC(C)C)C(=O)N[C@@H](C)C(=O)N1CCC[C@H]1C(=O)O [bEB] ({Biotin-Ahx}-RRKKAAVALLPAVLLALLAP-OH) | 15 | – | – | 35 | 21 | antiviral activity compared with EB [2]: essentially as effective as EB; IC50 [4, 7]: 110 µM
RQIKIWFPNRRMKWKK [bHOMd] | 7 | None | – | 115 | – | –
